{"source": "paper PMC12196166", "about": "“Mechanistic Insight into the Enhanced Anti-Pulmonary Hypertension Efficacy of Wogonin Co-Amorphous” (Pharmaceutics, 2025)", "key": {"PDGF-BB-induced PASMCs [1]": {"system": "PDGF-BB-induced PASMCs", "experiment": "ROS detection (DCFH-DA probe)", "assay_type": "cell-based, Human", "settings": "3 μM, 40 ng/mL PDGF-BB for 48 h, DCFH-DA fluorescence, vs. model group", "procedure": "Human PASMCs ([…], Cat. No.: CYH0707) were purchased from Wuhan Enji Life Technology Co., Ltd. (Wuhan, China) […] were cultured in Dulbecco's Modified Eagle Medium (DMEM) medium with 10% fetal bovine serum (FBS) and 1% penicillin/streptomycin (P/S), and maintained in a humidified 5% CO2 incubator at 37 °C. Prior to drug treatment, […] were subjected to serum starvation by culturing in a maintenance medium containing 0.5% FBS for 24 h to synchronize cell cycle progression. […] After 1 h, cells were stimulated with 40 ng/mL PDGF-BB for 48 h in each group except the control group. […] After treatment, cells were loaded with 1 μM 2',7'-dichlorodihydrofluorescein diacetate (DCFH-DA) probe for 20 min at 37 °C in the dark. Nuclei were counterstained with Hoechst 33342 Live Cells Staining Solution (1:100 dilution) for 10 min. Fluorescent imaging was performed using a laser scanning confocal microscope (Leica TCS SP8, Wetzlar, Germany) with excitation/emission settings at 488/525 nm for DCFH-DA and 350/461 nm for Hoechst 33342. ROS-associated fluorescence intensity was quantified using ImageJ 4.4 software."}, "PDGF-BB-induced PASMCs [2]": {"system": "PDGF-BB-induced PASMCs", "experiment": "Measurement of oxidative stress markers (MDA, GSH, CAT, GPx kits)", "assay_type": "cell-based, Human", "settings": "3 μM, vs. model group", "procedure": "Human PASMCs ([…], Cat. No.: CYH0707) were purchased from Wuhan Enji Life Technology Co., Ltd. (Wuhan, China) […] were cultured in Dulbecco's Modified Eagle Medium (DMEM) medium with 10% fetal bovine serum (FBS) and 1% penicillin/streptomycin (P/S), and maintained in a humidified 5% CO2 incubator at 37 °C. Prior to drug treatment, […] were subjected to serum starvation by culturing in a maintenance medium containing 0.5% FBS for 24 h to synchronize cell cycle progression. […] After 1 h, cells were stimulated with 40 ng/mL PDGF-BB for 48 h in each group except the control group. The levels of MDA and glutathione (GSH), as well as the activities of CAT and glutathione peroxidase (GPx) in cells, were measured using commercial assay kits. The treated PASMCs were collected and lysed with protein lysis buffer following the manufacturer's instructions."}, "[3]": {"system": "monocrotaline (MCT)-induced PH rats", "experiment": "Anti-pulmonary hypertension pharmacodynamics", "assay_type": "in vivo, Sprague-Dawley rats", "procedure": "Four-week-old male SPF Sprague-Dawley rats (weighing 220 ± 10 g) were purchased from Sporford Biotechnology Co., Ltd. (Beijing, China). and were randomly divided into cages (four rats per cage) and acclimatized for at least three days with free access to food and water.\nAnti-PH pharmacodynamics were carried out using monocrotaline (MCT)-induced PH rats. Thirty rats were randomly divided into five groups: (A) control group; (B) model group; and three treatment groups (C) Wog group; (D) Wog+Alop group; and (E) Wog-Alop group. MCT was administered by a single femoral vein injection to induce PH. All administered groups of drugs were intragastrically administered from days 1 to 21 at a theoretical dose of 5 mg/kg/day for Wog. After three weeks of administration, the rats were weighed and anesthetized with 20% urethane. The electrocardiogram and right ventricular systolic pressure (RVSP) of rats were measured. The rats were perfused, and the heart and lung tissues were completely removed. The right ventricle (RV) and left ventricle plus ventricular septum (LV + S) were accurately separated and weighted, and the right ventricular hypertrophy index (RVHI) = RV/(LV + S) × 100%, RV mass index (RVMI) = RV/body weight × 100% and lung mass index (LMI) = lung weight/body weight × 100% were calculated. […] Heart tissues were taken for H&E and Masson staining, and lung tissues were stained with resorcinol basic fuchsin and proliferating cell nuclear antigen (PCNA) immunofluorescence."}, "PDGF-BB-induced PASMCs [4]": {"system": "PDGF-BB-induced PASMCs", "experiment": "Cell viability (CCK-8) assay, abnormal proliferation", "assay_type": "cell-based, Human", "settings": "3 μM, 40 ng/mL PDGF-BB for 48 h, CCK-8, vs. model group", "procedure": "Human PASMCs ([…], Cat. No.: CYH0707) were purchased from Wuhan Enji Life Technology Co., Ltd. (Wuhan, China) […] were cultured in Dulbecco's Modified Eagle Medium (DMEM) medium with 10% fetal bovine serum (FBS) and 1% penicillin/streptomycin (P/S), and maintained in a humidified 5% CO2 incubator at 37 °C. Prior to drug treatment, […] were subjected to serum starvation by culturing in a maintenance medium containing 0.5% FBS for 24 h to synchronize cell cycle progression. […] After 1 h, cells were stimulated with 40 ng/mL PDGF-BB for 48 h in each group except the control group. Cell viability was assessed using the Cell Counting Kit-8 (CCK-8) assay according to the manufacturer's protocol. Briefly, 10 μL of CCK-8 reagent was added to each well of pretreated PASMCs, followed by incubation at 37 °C under 5% CO2 for 2-h. The absorbance of each sample was quantified at 450 nm using a microplate reader."}, "[5]": {"experiment": "Pharmacokinetic study after intragastric administration", "assay_type": "in vivo", "settings": "male, Sprague-Dawley, rat, po, rats, 5 mg/kg as wogonin, plasma", "procedure": "Four-week-old male SPF Sprague-Dawley rats (weighing 220 ± 10 g) were purchased from Sporford Biotechnology Co., Ltd. (Beijing, China). and were randomly divided into cages (four rats per cage) and acclimatized for at least three days with free access to food and water. This study was performed with the approval of the Ethics Review Committee for Laboratory Animals of Beijing University of Chinese Medicine (approval number: BUCM-2023032307-1148) and strictly adhered to the relevant guidelines. Laboratory animal license No.: SCXK (Jing) 2019-0010; Laboratory unit use license No.: SYXK (Jing) 2020-0033.\nTwenty-four SD rats were randomly divided into three groups of eight rats each. After 3 days of adaptive feeding, they were fasted (free access to water) for 12 h. On the morning of the fourth day, wogonin, Wog+Alop, and Wog-Alop were intragastrically administered at a theoretical dose of 5 mg/kg for wogonin. Plasma samples were collected into heparinized tubes from the oculi choroideae vein at 0, 5, 10, 15, 30, 45, and 60 min and 2, 4, 6, 8, 12, 24, 32, and 48 h after administration. Plasma samples were separated by centrifugation and stored at −80 °C until determination. Ultra-Performance Liquid Chromatography-Tandem Triple Quadrupole Mass Spectrometry (UPLC-QQQ-MS) multi-response monitoring (MRM) mode was used to determine plasma samples, and Masslynx 4.1 was used to calculate plasma drug concentrations at each collection time point. The plasma concentration versus time plots were drawn, and the pharmacokinetic parameters were calculated by DAS 2.1 software. The relative oral bioavailability (RB) was calculated using the following formula: […]"}, "[6]": {"experiment": "In vitro dissolution in distilled water (UPLC)", "assay_type": "physicochemical", "settings": "37.0 °C, 100 rpm", "procedure": "The wogonin, physical mixture of wogonin and aloperine (Wog+Alop), and Wog-Alop with the theoretical drug content of 6.00 mg were accurately weighed and placed into 200 mL conical flasks containing 90 mL of distilled water at 37.0 °C and 100 rpm. A total of 2 mL of sample solution was withdrawn at predetermined time points (0, 1, 2, 3, 4, 5, 6, 7, 8, 9, 10, 15, 30, 45, and 60 min) and an equal volume of distilled water was immediately supplemented. The sample solutions were filtered through a 0.22 μm microporous membrane and determined by Ultra Performance Liquid Chromatography (UPLC)."}, "[7]": {"settings": "intragastric 5 mg/kg/day as Wog, days 1 to 21, vs. model group"}}}
{"smiles": "C1=C2CCCN[C@H]2[C@@H]2C[C@H]1[C@H]1CCCCN1C2", "note": "[Alop, aloperine]", "values": [{"measurement": "ROS levels", "setting": "PDGF-BB-induced PASMCs [1]", "value": "Neither Wog nor Alop alone showed notable inhibitory effects"}, {"measurement": "increase in MDA levels", "setting": "PDGF-BB-induced PASMCs [2]", "value": "significantly inhibited"}, {"measurement": "reduction in CAT activity", "setting": "PDGF-BB-induced PASMCs [2]", "value": "significantly inhibited"}, {"measurement": "reduction in GPx activity", "setting": "PDGF-BB-induced PASMCs [2]", "value": "significantly inhibited"}, {"measurement": "reduction in GSH levels", "setting": "PDGF-BB-induced PASMCs [2]", "value": "significantly inhibited"}, {"measurement": "P-wave duration", "setting": "[3]; [7]", "value": "significantly reduce"}, {"measurement": "RVHI (right ventricular hypertrophy index)", "setting": "[3]; [7]", "value": "not statistically significant"}, {"measurement": "RVMI (RV mass index)", "setting": "[3]; [7]", "value": "not statistically significant"}, {"measurement": "inhibition of abnormal proliferation of PDGF-BB-induced PASMC", "setting": "PDGF-BB-induced PASMCs [4]", "value": "almost no inhibitory effects"}]}
{"smiles": "COc1c(O)cc(O)c2c(=O)cc(-c3ccccc3)oc12", "note": "[Wogonin]", "values": [{"measurement": "ROS levels", "setting": "PDGF-BB-induced PASMCs [1]", "value": "Neither Wog nor Alop alone showed notable inhibitory effects"}, {"measurement": "increase in MDA levels", "setting": "PDGF-BB-induced PASMCs [2]", "value": "significantly inhibited"}, {"measurement": "reduction in CAT activity", "setting": "PDGF-BB-induced PASMCs [2]", "value": "significantly inhibited"}, {"measurement": "reduction in GPx activity", "setting": "PDGF-BB-induced PASMCs [2]", "value": "significantly inhibited"}, {"measurement": "reduction in GSH levels", "setting": "PDGF-BB-induced PASMCs [2]", "value": "significantly inhibited"}, {"measurement": "thickening of the medial wall of small pulmonary artery vessels", "setting": "[3]; 5 mg/kg/day as Wog, 21 days, resorcinol basic fuchsin staining, vs. model group", "value": "inhibit the thickening"}, {"measurement": "P-wave duration", "setting": "[3]; [7]", "value": "significantly reduce"}, {"measurement": "RVHI (right ventricular hypertrophy index)", "setting": "[3]; [7]", "value": "not statistically significant"}, {"measurement": "RVMI (RV mass index)", "setting": "[3]; [7]", "value": "not statistically significant"}, {"measurement": "RVSP (right ventricular systolic pressure)", "setting": "[3]; [7]", "value": "reduced RVSP, although without statistical significance"}, {"measurement": "inhibition of abnormal proliferation of PDGF-BB-induced PASMC", "setting": "PDGF-BB-induced PASMCs [4]", "value": "almost no inhibitory effects"}, {"measurement": "AUC(0-inf)", "setting": "[5]; n = 8", "value": "77 ± 80.6", "unit": "ng·h/mL"}, {"measurement": "AUC(0-t)", "setting": "[5]; n = 8", "value": "49.1 ± 42.1", "unit": "ng·h/mL"}, {"measurement": "Cmax", "setting": "[5]; n = 8", "value": "14.8 ± 12.2", "unit": "ng/mL"}, {"measurement": "Tmax", "setting": "[5]; n = 8", "value": "1.93 ± 3.41", "unit": "h"}, {"measurement": "MRT last", "setting": "[5]; n = 8, read-out: MRT(0–t)", "value": "5.97 ± 4.79", "unit": "h"}, {"measurement": "MRT inf", "setting": "[5]; n = 8, read-out: MRT(0–∞)", "value": "12.5 ± 17.5", "unit": "h"}, {"measurement": "half-life", "setting": "[5]; n = 8, read-out: t1/2z (converted)", "value": "7.21 ± 9.97", "unit": "h"}, {"measurement": "percentage of dissolution", "setting": "[6]", "value": 2.17, "unit": "%"}]}
